The values that follow come from patent publication US20220313707A1 (priority 2021, published 2022).

For this assay, the system named is influenza A Hp1N1 virus. On the set-up: species or system mice. The settings on record: mouse, in vivo.

SMILES strings stand for the structures.

Turning to `CC1(C)C(=O)N(c2ccc(C#N)c(C(F)(F)F)c2F)C(=S)N1c1ccc(CCCc2ncco2)nc1` [Proxalutamide], the “14 d survival rate” value is recorded as 40%, the “Mean days of survival” value is listed as 11.0 ± 2.83 days, the “Survival number (pcs.)” value is 4 pcs and the “Survival rate (%)” value was found to be 40%.
For the molecule `CC1(C)C(=O)N(c2ccc(C#N)c(C(F)(F)F)c2)C(=S)N1c1ccc(OC[C@@H](O)CO)cc1` [SHR-3680], the “14 d survival rate” value was 50%, the “Mean days of survival” value is on record as 11.3 ± 2.87 days, the “Survival number (pcs.)” value was 5 pcs and the “Survival rate (%)” value turned out to be 50%.
